Measurements: paper PMC12371865 (2025)

Legend:
[1] = tested on: hTel (hybrid-1 quadruplex, K+ stabilized) (DNA, G4) TTGGGTTAGGGTTAGGGTTAGGGA; assay: luminescence titration at 630 nm, Bard fit; details: K+ (50 mM potassium phosphate), pH 7, per base
[2] = tested on: d(G5C5)2 (DNA, duplex) GGGGGCCCCC; assay: luminescence titration at 630 nm, Bard fit; details: K+ (50 mM potassium phosphate), pH 7, per base
[3] = tested on: polyG (polyguanylic acid) (RNA, polymer) G; assay: luminescence quenching and UV-vis hypochromism titration; details: qualitative; enantiomer not stated

K b ([1]; binding-site size 1.4(±0.1)): 5.7(±0.2) × 10^5 M^-1
K b ([1]; binding-site size 2.7(±0.1)): 2.7(±0.2) × 10^5 M^-1
K b ([2]; binding-site size 2.1(±0.1)): 7.8(±0.8) × 10^5 M^-1
K b ([2]; binding-site size 2.2(±0.1)): 1.3(±0.2) × 10^6 M^-1
binding [3]: yes
SMILES: N#Cc1cccc2nc3c4cccnc4c4ncccc4c3nc12.[Ru+2].c1cnc2c(ccc3nccnc32)n1.c1cnc2c(ccc3nccnc32)n1
